Results as given in ChEMBL document CHEMBL1201862, “PubChem BioAssay data set” (2004).
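Method: 48-hour compound exposure of cells in 96-well plates, five concentrations, linear interpolation of endpoints. GI50: concentration for 50% inhibition of growth.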 Activity calls are given as the source filed them. Cut-off read from the data, not from the text of the source: active = GI50 up to about 1.1 µM and inactive = higher.

Assays:
Experiment in all cases: inhibition of tumour cell growth, NCI panel, 48 h
[1] = tested on: HOP-92
[2] = tested on: SK-OV-3
[3] = tested on: HOP-62
[4] = tested on: HT-29
[5] = tested on: SF-268
[6] = tested on: U-251
[7] = tested on: SK-MEL-28
[8] = tested on: EKVX
[9] = tested on: UACC-257
[10] = tested on: A498
[11] = tested on: UACC-62
[12] = tested on: M14
[13] = tested on: OVCAR-4
[14] = tested on: RPMI-8226
[15] = tested on: OVCAR-8
[16] = tested on: K562
[17] = tested on: MDA-MB-435
[18] = tested on: SW-620
[19] = tested on: A549
[20] = tested on: NCI/ADR-RES

Measured: GI50

O=C(O)CC(Cc1ccccc1Cl)C(=O)O (stereo not given)
inactive: [1] > 100 µM | [2] > 100 µM | [3] > 100 µM | [4] > 100 µM | [5] > 100 µM | [6] > 100 µM | [7] > 100 µM | [8] > 100 µM | [9] > 100 µM | [10] > 100 µM | [11] > 100 µM | [12] > 100 µM | [13] > 100 µM | [14] > 100 µM | [15] > 100 µM | [16] > 100 µM | [17] > 100 µM | [18] > 100 µM | [19] > 100 µM | [20] > 100 µM

O=C(NNS(=O)(=O)c1ccccc1)c1cccnc1
inactive: [1] > 100 µM | [2] > 100 µM | [3] > 100 µM | [4] > 100 µM | [5] > 100 µM | [6] > 100 µM | [7] > 100 µM | [8] > 100 µM | [9] > 100 µM | [10] > 100 µM | [11] > 100 µM | [12] > 100 µM | [13] > 100 µM | [14] > 100 µM | [15] > 100 µM | [16] > 100 µM | [17] > 100 µM | [18] > 100 µM | [19] > 100 µM | [20] > 100 µM

N#CCCCC[N+]12CN3CN(CN(C3)C1)C2
inactive: [1] > 100 µM | [2] > 100 µM | [3] > 100 µM | [4] > 100 µM | [5] > 100 µM | [6] > 100 µM | [7] > 100 µM | [8] > 100 µM | [9] > 100 µM | [10] > 100 µM | [11] > 100 µM | [12] > 100 µM | [13] > 100 µM | [14] 40.8 µM | [15] > 100 µM | [16] > 100 µM | [17] > 100 µM | [18] 64.6 µM | [19] > 100 µM | [20] > 100 µM

O=C1N=NC(=O)N1c1cc(C(F)(F)F)cc(C(F)(F)F)c1
inactive: [1] 2.75 µM | [2] 3.81 µM | [3] 4.17 µM | [4] 2.73 µM | [5] 3.7 µM | [6] 3.12 µM | [7] 10.6 µM | [8] 3.24 µM | [9] 3.16 µM | [10] 5.4 µM | [11] 5.65 µM | [12] 5.7 µM | [13] 4.21 µM | [14] 2.89 µM | [15] 3.38 µM | [16] 3.37 µM | [17] 4.38 µM | [18] 5.46 µM | [19] 2.93 µM | [20] 2.97 µM

CCOc1cc2c(cc1O)CC[C@@H]1[C@@H]2CC[C@]2(C)C(N)CC[C@@H]12 (stereo not given in full)
inactive: [1] 10.6 µM | [2] 3.19 µM | [3] 5.94 µM | [4] 2.44 µM | [5] 3.57 µM | [6] 2.89 µM | [7] 9.62 µM | [8] 4.27 µM | [9] 3.44 µM | [10] 5.52 µM | [11] 3.91 µM | [12] 4.05 µM | [13] 19.3 µM | [14] 3.01 µM | [15] 2.71 µM | [16] 3.89 µM | [17] 1.63 µM | [18] 3.04 µM | [19] 3.3 µM | [20] 2.69 µM

COc1cc(C)cc(C(=O)/C=C/c2ccccc2)c1O
inactive: [1] 14.9 µM | [2] 29.2 µM | [3] 16.7 µM | [4] 18.3 µM | [5] 25.6 µM | [6] 17.2 µM | [7] 19.4 µM | [8] 19.4 µM | [9] 16.7 µM | [10] 18.3 µM | [11] 17.1 µM | [12] 16.6 µM | [13] 20.2 µM | [14] 21.2 µM | [15] 19.2 µM | [16] 40.6 µM | [17] 26.9 µM | [18] 20.2 µM | [19] 30.3 µM | [20] 21.4 µM

NC(Cc1ccnnc1)C(=O)O (stereo not given)
inactive: [1] > 100 µM | [2] > 100 µM | [3] > 100 µM | [4] > 100 µM | [5] > 100 µM | [6] > 100 µM | [7] > 100 µM | [8] > 100 µM | [9] > 100 µM | [10] > 100 µM | [11] > 100 µM | [12] > 100 µM | [13] > 100 µM | [14] > 100 µM | [15] > 100 µM | [16] > 100 µM | [17] > 100 µM | [18] > 100 µM | [19] > 100 µM | [20] > 100 µM

COC(=O)C1(Cc2ccc3c(c2)CCC3)Cc2cc3c(cc2C1=O)CCC3 (stereo not given)
inactive: [1] 7.74 µM | [2] > 46.5 µM | [3] > 46.5 µM | [4] 20.3 µM | [5] > 46.5 µM | [6] 29.4 µM | [7] 37.2 µM | [8] 21.3 µM | [9] 16.4 µM | [10] 10.7 µM | [11] 37 µM | [12] 20.8 µM | [13] 18.7 µM | [14] 8.02 µM | [15] 27.2 µM | [16] 8.93 µM | [17] 13.3 µM | [18] 16.9 µM | [19] 18.2 µM | [20] 13.4 µM

COC(=O)[C@]12CC[C@H]3CC[C@H]([C@H]31)[C@H](c1ccccc1)N2
inactive: [1] 15.8 µM | [2] 25.4 µM | [3] 17.4 µM | [4] 15.1 µM | [5] 19.6 µM | [6] 17 µM | [7] 21.9 µM | [8] 16.8 µM | [9] 15.1 µM | [10] 17.6 µM | [11] 14.4 µM | [12] 17.9 µM | [13] 15.2 µM | [14] 14.2 µM | [15] 17.4 µM | [16] 14.2 µM | [17] 18.3 µM | [18] 22.2 µM | [19] 17.7 µM | [20] 13.9 µM

Nc1nc(Cl)c(C=O)c(NCC2(CO)CC(CCc3ccccc3)C2)n1 (stereo not given)
inactive: [1] 1.77 µM | [2] 11.3 µM | [3] 14.5 µM | [4] 12.4 µM | [5] 15.4 µM | [6] 13.6 µM | [7] 4 µM | [8] 3.94 µM | [9] 3.08 µM | [10] 11.7 µM | [11] 5.38 µM | [12] 2.54 µM | [13] 2 µM | [14] 12.4 µM | [15] 2.07 µM | [16] 1.88 µM | [17] 5.73 µM | [18] 4.1 µM | [19] 12.1 µM | [20] 16.2 µM

C[C@@H](C[C@H]1OC(C)(C)O[C@@H]1C(C)(C)O)[C@H]1CC=C2[C@]3(C)[C@H](O)C[C@H]4C(C)(C)[C@H](O)CC[C@]4(C)[C@H]3CC[C@]21C
inactive: [1] 6.21 µM | [2] 12.5 µM | [3] 12.8 µM | [4] 2.9 µM | [5] 10.5 µM | [6] 6.84 µM | [7] 9.95 µM | [8] 9.98 µM | [9] 8.81 µM | [10] 10.7 µM | [11] 11.5 µM | [12] 9.29 µM | [13] 8.51 µM | [14] 4.03 µM | [15] 11.6 µM | [16] 3.99 µM | [17] 8.28 µM | [18] 10.7 µM | [19] 5.86 µM | [20] 7.69 µM

Cc1ccc(/C=C2\NC(=S)N(CN3CCOCC3)C2=O)cc1
inactive: [1] > 100 µM | [2] > 100 µM | [3] > 100 µM | [4] > 100 µM | [5] > 100 µM | [6] > 100 µM | [7] > 100 µM | [8] > 100 µM | [9] > 100 µM | [10] > 100 µM | [11] > 100 µM | [12] > 100 µM | [13] > 100 µM | [14] > 100 µM | [15] > 100 µM | [16] > 100 µM | [17] > 100 µM | [18] > 100 µM | [19] > 100 µM | [20] > 100 µM

CC(C)Cc1ccc(C(C)/C=C2\CCC(CN(C)C)C2=O)cc1 (stereo not given)
inactive: [1] 19 µM | [2] 19.5 µM | [3] 9.23 µM | [4] 13.8 µM | [5] 11.6 µM | [6] 16.7 µM | [7] 15.8 µM | [8] 19.9 µM | [9] 14.8 µM | [10] 19.5 µM | [11] 17.5 µM | [12] 12.9 µM | [13] 17 µM | [14] 1.56 µM | [15] 9.38 µM | [16] 2.86 µM | [17] 7.16 µM | [18] 6.82 µM | [19] 27.7 µM | [20] 5.89 µM

Nc1c([N+](=O)[O-])cc2c3c(cccc13)CC2
inactive: [1] > 100 µM | [2] 51.2 µM | [3] 74.6 µM | [4] 98.9 µM | [5] 83.6 µM | [6] 91 µM | [7] > 100 µM | [8] 26.7 µM | [9] > 100 µM | [10] 33.7 µM | [11] 85.1 µM | [12] > 100 µM | [13] 47.8 µM | [14] 55.7 µM | [15] 71.3 µM | [16] > 100 µM | [17] 62.5 µM | [18] 82.2 µM | [19] 78.5 µM | [20] 40.8 µM
